Reference: patent publication US20240188569A1, “NEW YEAST STRAIN AND ITS USES FOR THE CONTROL OF PHYTOPATHOGENS” (AGROVENTURES LLC, priority 2021, published 2024)
Converted amounts (≈) assume the structure as drawn.

Test system: PT22AV
Test: Minimum inhibitory concentration of fungicides in NYDA agar
Conditions: for Minimum inhibitory concentration: fungicide against PT22AV, incorporated in NYDA agar; for Resistance level: resistance level of PT22AV to the fungicide; for MIC: Papiliotrema terrestris, read-out: Minimum inhibitory concentration

**Q.** With CO/C=C(/C(=O)OC)c1ccccc1Oc1cc(Oc2ccccc2C#N)ncn1 [Azoxystrobin] as the molecule, how does the Minimum inhibitory concentration read?
**A.** Its Minimum inhibitory concentration is 1000 µg/mL (≈ 2.48 mM).

**Q.** And the Resistance level?
**A.** The Resistance level was “Resistant”.

**Q.** CCCCNC(=O)n1c(NC(=O)OC)nc2ccccc21 [Benomyl] was tested. Which MIC did it give?
**A.** The MIC was 1000 µg/mL (≈ 3.44 mM).

**Q.** What about the Resistance level of the same molecule?
**A.** The Resistance level was “Resistant”.

**Q.** How did the MIC turn out when COC(=O)Nc1nc2ccccc2[nH]1 [Carbendazim] was run?
**A.** The MIC was 1000 µg/mL (≈ 5.23 mM).

**Q.** What about the Resistance level of the same molecule?
**A.** Its Resistance level is “Resistant”.

**Q.** [Cl-].[Cu+2].[Cu+2].[OH-].[OH-].[OH-] [Copper oxychloride] was tested. Which Minimum inhibitory concentration did it give?
**A.** Its Minimum inhibitory concentration is 500 µg/mL.

**Q.** What about the Resistance level of the same molecule?
**A.** The Resistance level was “Resistant”.

**Q.** Which MIC does the source give for N#Cc1c[nH]cc1-c1cccc2c1OC(F)(F)O2 [Fludioxonil] here?
**A.** Its MIC is 1000 µg/mL (≈ 4.03 mM).

**Q.** Which MIC does the source give for C=CCOC(Cn1ccnc1)c1ccc(Cl)cc1Cl (stereo not drawn) [Imazalil] here?
**A.** Its MIC is 300 µg/mL (≈ 1.01 mM).

**Q.** And the Resistance level?
**A.** Its Resistance level is “Sensitive”.

**Q.** Which MIC does the source give for CCCC(Cn1cncn1)c1ccc(Cl)cc1Cl (stereo not drawn) [Penconazol] here?
**A.** Its MIC is 200 µg/mL (≈ 0.704 mM).

**Q.** What about the Resistance level of the same molecule?
**A.** Its Resistance level is “Sensitive”.

**Q.** Which results are given for CC12CC1(C)C(=O)N(c1cc(Cl)cc(Cl)c1)C2=O (stereo not drawn) [Procymidone]?
**A.** MIC: 1000 µg/mL (≈ 3.52 mM); Resistance level: Resistant

**Q.** Which results are given for S1SSSSSSS1 [Sulfur]?
**A.** MIC: 2000 µg/mL (≈ 7.8 mM); Resistance level: Resistant

**Q.** What does the source list for CC(C)(C)C(O)(CCc1ccc(Cl)cc1)Cn1cncn1 (stereo not drawn) [Tebuconazole]?
**A.** MIC: 100 µg/mL (≈ 0.325 mM); Resistance level: Sensitive

**Q.** Which MIC does the source give for c1ccc2[nH]c(-c3cscn3)nc2c1 [Thiabendazole] here?
**A.** The MIC was 1000 µg/mL (≈ 4.97 mM).

**Q.** What about the Resistance level of the same molecule?
**A.** The Resistance level was “Resistant”.

**Q.** Which MIC does the source give for CON=C(C(=O)OC)c1ccccc1CON=C(C)c1cccc(C(F)(F)F)c1 [Trifloxystrobin] here?
**A.** Its MIC is 1000 µg/mL (≈ 2.45 mM).

**Q.** What about the Resistance level of the same molecule?
**A.** The Resistance level was “Resistant”.

**Q.** With C=CC1(C)OC(=O)N(c2cc(Cl)cc(Cl)c2)C1=O (stereo not drawn) [Vinclozolin] as the molecule, how does the MIC read?
**A.** The MIC was 1000 µg/mL (≈ 3.5 mM).

**Q.** What about the Resistance level of the same molecule?
**A.** Its Resistance level is “Resistant”.

**Q.** With Mancozeb as the molecule, how does the Minimum inhibitory concentration read?
**A.** Its Minimum inhibitory concentration is 300 µg/mL.

**Q.** And the Resistance level?
**A.** Its Resistance level is “Sensitive”.
